Source: patent US8877707B2, “Inhibitors of HCV NS5A” (Presidio Pharmaceuticals, Inc., priority 2010, dated 2014)
Read-outs that look alike come from different tables or passages of the source.

Tested on: HCV genotype 1b replicon in Huh 7 cells
Test: HCV replicon assay (1b_Huh-Luc/Neo-ET cell line, luciferase readout)
Assay type: cell-based
Details: Hepatitis C virus, read-out: Inhibition of HCV genotype 1b
Outline: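 Replicon level was read as luciferase signal after 72 h compound exposure, triplicate wells, starting the day after cells were plated. Cell line: 1b_Huh-Luc/Neo-ET. Values normalised to control as percent, and EC50 fitted with a variable-slope sigmoid; determinations repeated.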

[1] = Table 1, genotype 1b replicon, Huh 7 cells, 72 h, luciferase
[2] = Table 2, genotype 1b replicon, Huh 7 cells, 72 h, luciferase

Compound | EC50 [1] [nM] | EC50 (Huh-7, HCV 1b replicon) [nM] | other results
COC(=O)N[C@H](C(=O)N1CCC[C@H]1c1nc2ccc(-c3ccc4cc(-c5ccc6nc([C@@H]7CCCN7C(=O)[C@@H](NC(=O)OC)C(C)C)[nH]c6c5)ccc4c3)cc2[nH]1)C(C)C [compound 276] | < 1 | – | –
COC(=O)N[C@H](C(=O)N1CCC[C@H]1c1nc2ccc(-c3cccc4c(-c5cnc([C@@H]6CCCN6C(=O)[C@@H](NC(=O)OC)C6CCOCC6)[nH]5)cccc34)cc2[nH]1)C(C)C [compound 215] | < 1 | – | –
O=C(N[C@@H](C(=O)N1CCC[C@H]1c1ncc(-c2ccc3nc(-c4ccc5nc([C@@H]6CCCN6C(=O)[C@H](NC(=O)OC6CCOCC6)c6ccccc6)[nH]c5c4)ccc3c2)[nH]1)c1ccccc1)OC1CCOCC1 [compound 508] | – | < 1 | –
COC(=O)N[C@H](C(=O)N1CCC[C@H]1c1nc2ccc(-c3ccc4cc(-c5ccc6nc([C@@H]7CCCN7C(=O)[C@H](NC(=O)OC)c7ccccc7)[nH]c6c5)ccc4c3)cc2[nH]1)C(C)C [compound 283] | < 1 | – | –
COC(=O)N[C@H](C(=O)N1CCC[C@H]1c1ncc(-c2ccc3cc(-c4ccc5nc([C@@H]6CCCN6C(=O)[C@H](NC(=O)OC)c6ccccc6)[nH]c5n4)ccc3c2)[nH]1)C(C)C [compound 199] | < 1 | – | –
COC(=O)N[C@H](C(=O)N1CCC[C@H]1c1ncc(-c2cnc(-c3ccc4cc(-c5cnc([C@@H]6CCCN6C(=O)[C@@H](NC(=O)OC)C(C)C)[nH]5)ccc4c3)nc2)[nH]1)C(C)C [compound 476] | – | < 1 | –
COC(=O)N[C@H](C(=O)N1CCC[C@H]1c1ncc(-c2ccc3cc(-c4ccc5nc([C@@H]6CCCN6C(=O)[C@@H](NC(=O)OC)C(C)C)[nH]c5c4)ncc3c2)[nH]1)C(C)C [compound 204] | < 1 | – | –
COC(=O)N[C@@H](C(=O)N1CCC[C@H]1c1nc(-c2ccc3nc(-c4ccc(-c5cnc([C@@H]6CCCN6C(=O)[C@H](NC(=O)OC)c6ccccc6)[nH]5)cc4F)ccc3c2)c[nH]1)c1ccccc1 [compound 97] | < 1 | – | –
COC(=O)N[C@H](C(=O)N1CCC[C@H]1CNC(=O)c1cnc2cc(-c3ccc4nc([C@@H]5CCCN5C(=O)[C@@H](NC(=O)OC)C(C)C)[nH]c4c3)ccc2c1)C(C)C [compound 554] | – | 1 to 9.9 | –
COC(=O)N[C@@H](C)C(=O)N1CCC[C@H]1C(=O)NCc1ccc(-c2ccc3cc(-c4cnc([C@@H]5CCCN5C(=O)[C@H](C)NC(=O)OC)[nH]4)ccc3c2)cc1 [compound 566] | – | 10 to 999 | –
CC[C@H](C)[C@H](NC(=O)OC)C(=O)N1CCC[C@H]1c1ncc(-c2ccc3cc(-c4cc5[nH]c([C@@H]6CCCN6C(=O)[C@@H](NC(=O)OC)[C@@H](C)CC)nc5cc4F)ccc3c2)[nH]1 [compound 703] | – | < 1 | –
COC(=O)N[C@H](C(=O)N1CCC[C@H]1c1ncc(-c2ccc3cc(-c4ccc5nc([C@@H]6COCCN6C(=O)[C@@H](NC(=O)OC)[C@@H](C)OC)[nH]c5c4)ccc3c2)[nH]1)[C@@H](C)OC [compound 354] | – | – | EC50 [2]: < 1 nM
COC(=O)N[C@@H](C(=O)N1CCC[C@H]1c1nc(-c2ccc3nc(-c4ccc(-c5cnc([C@@H]6CCCN6C(=O)[C@H](NC(=O)OC)c6ccccc6)[nH]5)c(F)c4)ccc3c2)c[nH]1)c1ccccc1 [compound 109] | < 1 | – | –
COC(=O)N[C@H](C(=O)N1CCC[C@H]1c1ncc(-c2ccc(-c3ccc4cc(-c5cnc([C@@H]6CCCN6C(=O)[C@H](NC(=O)OC)c6ccccc6)[nH]5)ccc4n3)c(F)c2)[nH]1)C(C)C [compound 119] | < 1 | – | –
COC(=O)N[C@H](C(=O)N1CCC[C@H]1c1ncc(-c2ccc(-c3ccc4cc(-c5c[nH]c([C@@H]6CCCN6C(=O)[C@@H](NC(=O)OC)C6CCOCC6)n5)cnc4c3)c(F)c2)[nH]1)C(C)C [compound 59] | < 1 | – | –
COC(=O)N[C@H](C(=O)N1CCC[C@H]1c1nc(-c2ccc3cc(-c4ccc(-c5cnc([C@@H]6CCCN6C(=O)[C@@H](NC(=O)OC)C(C)C)[nH]5)cc4)ccc3n2)c[nH]1)C(C)C [compound 102] | < 1 | – | –
COC(=O)N[C@H](C(=O)N1CCC[C@H]1c1ncc(-c2ccc3cc(-c4cc5[nH]c([C@@H]6CCCN6C(=O)[C@@H](NC(=O)OC)C6CCCCC6)nc5cn4)ccc3c2)[nH]1)C1CCCCC1 [compound 417] | – | – | EC50 [2]: < 1 nM
COC(=O)N[C@H](C(=O)N1CCC[C@H]1c1ncc(-c2ccc3cc(-c4ccc(-c5cnc([C@@H]6CCCN6C(=O)[C@@H](NC(=O)OC)C6CCOCC6)[nH]5)nn4)ccc3c2)[nH]1)C1CCOCC1 [compound 314] | – | – | EC50 [2]: < 1 nM
COC(=O)N[C@H](C(=O)N1CCC[C@H]1c1ncc(-c2ccc3cc(-c4ccc5nc([C@@H]6CCCN6C(=O)[C@@H](NC(=O)OC)C6CC6)[nH]c5n4)ccc3c2)[nH]1)C1CC1 [compound 516] | – | < 1 | –
COC(=O)N[C@H](C(=O)N1CCC[C@H]1c1ncc(-c2ccc3nc(-c4ccc(-c5cnc([C@@H]6CCCN6C(=O)[C@H](NC(=O)OC(C)(C)C)c6ccccc6)[nH]5)cc4)oc3c2)[nH]1)C(C)C [compound 254] | < 1 | – | –
COC(=O)N[C@H](C(=O)N1CCC[C@H]1c1ncc(-c2ccc(-c3ccc4cc(-c5cnc([C@@H]6CCCN6C(=O)[C@@H](NC(=O)OC)C6CCOCC6)[nH]5)ccc4n3)c(F)c2)[nH]1)C(C)C [compound 120] | < 1 | – | –

Compound | EC50 [1] [nM] | EC50 (Huh-7, HCV 1b replicon) [nM] | other results
COC(=O)N[C@H](C(=O)N1CCC[C@H]1c1ncc(-c2ccc3nc(-c4ccc(-c5cnc([C@@H]6CCCN6C(=O)[C@H](NC(=O)OC)c6ccccc6)[nH]5)cc4)ccc3c2)[nH]1)[C@@H](C)OC [compound 489] | – | < 1 | –
COC(=O)N[C@@H](C)C(=O)N1CCC[C@H]1c1nc(-c2ccc3nc(C45CCC(c6cnc([C@@H]7CCCN7C(=O)[C@H](C)NC(=O)OC)[nH]6)(CC4)CC5)ccc3c2)c[nH]1 [compound 266] | < 1 | – | –
COC(=O)N[C@H](C(=O)N1CCC[C@H]1c1nc2ccc(-c3ccc4cc(-c5cnc([C@@H]6CCCN6C(=O)[C@@H](NC(=O)OC)[C@@H](C)OC)[nH]5)ccc4c3)nc2[nH]1)C1CCCC1 [compound 533] | – | < 1 | –
COC(=O)N[C@H](C(=O)N1CCC[C@H]1c1ncc(-c2ccc(-c3ccc4cc(-c5c[nH]c([C@@H]6CCCN6C(=O)[C@@H](NC(=O)OC)C6CCOCC6)n5)ccc4n3)cc2)[nH]1)C(C)C [compound 39] | < 1 | – | –
COC(=O)N[C@@H](C(=O)N1CCC[C@H]1c1ncc(-c2ccc3nc(-c4ccc5nc([C@@H]6CCCN6C(=O)[C@H](NC(=O)OC)c6ccccc6)[nH]c5c4)ccc3c2)[nH]1)c1ccccc1 [compound 507] | – | < 1 | –
COC(=O)N[C@H](C(=O)N1CCC[C@H]1c1ncc(-c2ccc(-c3ccc4cc(-c5cnc([C@@H]6COCCN6C(=O)[C@@H](NC(=O)OC)C(C)C)[nH]5)ccc4c3)cc2)[nH]1)C(C)C [compound 140] | < 1 | – | –
COC(=O)N[C@H](C(=O)N1CCC[C@H]1c1ncc(-c2ccc3cc(-c4ccc5nc([C@@H]6CCCN6C(=O)[C@@H](NC(=O)OC)C6CCCC6)[nH]c5n4)ccc3c2)[nH]1)C1CCCC1 [compound 515] | – | < 1 | –
COC(=O)N[C@H](C(=O)N1CCC[C@H]1c1ncc(-c2ccc3ccc(C45CCC(c6cnc([C@@H]7CCCN7C(=O)[C@@H](NC(=O)OC)C(C)C)[nH]6)(CC4)CC5)cc3c2)[nH]1)C(C)C [compound 261] | 1 to 9.9 | – | –
COC(=O)N[C@H](C(=O)N1CCOC[C@H]1c1ncc(-c2ccc(-c3ccc4cc(-c5cnc([C@@H]6COCCN6C(=O)[C@@H](NC(=O)OC)C(C)C)[nH]5)ccc4c3)cc2)[nH]1)C(C)C [compound 170] | < 1 | – | –
COC(=O)N[C@H](C(=O)N1CCC[C@H]1c1ncc(-c2ccc3cc(-c4ccc(-c5cnc([C@@H]6CCCN6C(=O)[C@@H](NC(=O)OC)C6CCOCC6)[nH]5)cc4F)ncc3c2)[nH]1)C(C)C [compound 151] | < 1 | – | –
COC(=O)N[C@@H](C(=O)N1CCCC[C@H]1c1ncc(-c2ccc(-c3nc4ccc(-c5cnc([C@@H]6CCCCN6C(=O)[C@H](NC(=O)OC)c6ccccc6)[nH]5)cc4s3)cc2)[nH]1)c1ccccc1 [compound 248] | < 1 | – | –
COC(=O)N[C@@H](C)C(=O)N1CCC[C@H]1C(=O)N[C@@H](C)c1ccc(-c2ccc3cc(-c4cnc([C@@H]5CCCN5C(=O)[C@H](C)NC(=O)OC)[nH]4)ccc3c2)cc1 [compound 556] | – | 10 to 999 | –
COC(=O)N[C@H](C(=O)N1CCC[C@H]1c1nc2c([nH]1)-c1ccc(-c3ccc4cc(-c5cnc([C@@H]6CCCN6C(=O)[C@H](NC(=O)OC6CCOCC6)c6ccccc6)[nH]5)ccc4n3)cc1CC2)C(C)C [295-1] | < 1 | – | –
COC(=O)N[C@H](C(=O)N1CCC[C@H]1c1nc(-c2ccc3cc(-c4ccc(-c5cnc([C@@H]6CCCN6C(=O)[C@@H](NC(=O)OC)C6CCOCC6)[nH]5)cc4)ccc3c2)c[nH]1)C(C)C [compound 46] | < 1 | – | –
COC(=O)N[C@H](C(=O)N1CCC[C@H]1C(=O)NCc1ccc(-c2ccc3cc(-c4cnc([C@@H]5CCCN5C(=O)[C@@H](NC(=O)OC)[C@@H](C)OC)[nH]4)ccc3c2)cc1)[C@@H](C)OC [compound 568] | – | 10 to 999 | –
COC(=O)N[C@H](C(=O)N1CCC[C@H]1C(=O)Nc1ccc(-c2ccc3cc(-c4cnc([C@@H]5CCCN5C(=O)[C@@H](NC(=O)OC)[C@@H](C)OC)[nH]4)ccc3c2)cc1)[C@@H](C)OC [compound 578] | – | < 1 | –
COC(=O)N[C@H](C(=O)N1CCC[C@H]1c1nc(-c2ccc3nc(-c4ccc(-c5cnc([C@@H]6CCCN6C(=O)[C@@H](NC(=O)OC)C6CCOCC6)[nH]5)cc4)ccc3c2)c[nH]1)C(C)C [compound 42] | < 1 | – | –
COC(=O)N[C@H](C(=O)N1CCC[C@H]1c1ncc(-c2ccc(-c3ccc4cc(-c5c[nH]c([C@@H]6CCCN6C(=O)[C@H](NC(=O)OC)c6ccccc6)n5)cnc4c3)cc2)[nH]1)C(C)C [compound 45] | < 1 | – | –
COC(=O)N[C@H](C(=O)N1CCC[C@H]1c1ncc(-c2ccc3cc(-c4ccc5nc([C@@H]6CCCN6C(=O)[C@@H](NC(=O)OC)C6CCOCC6)[nH]c5n4)ccc3c2)[nH]1)C1CCOCC1 [compound 205] | < 1 | – | –
COC(=O)N[C@H](C(=O)N1CCOC[C@H]1c1ncc(-c2ccc3cc(-c4ccc(-c5cnc([C@@H]6COCCN6C(=O)[C@H](NC(=O)OC)c6ccccc6)[nH]5)cc4)ccc3c2)[nH]1)C(C)C [compound 168] | < 1 | – | –
